The source of these data is US6399824B1, “Substituted cinnamic, acid guanidides, process for their preparation, their use as a medicament, and medicament comprising them” (Aventis Pharma Deutschland GmbH, priority 2000, dated 2002).

The IC50 is the concentration needed to halve the response being measured. What is called solubility is how much of the substance goes into solution per volume.

Structures are written as SMILES. Where a name gives a salt, the structure may show the parent alone. Bounds are passed on as bounds.

For one data set, the target named is T1, rNHE3 (Rattus norvegicus, UniProt P26433).
T1 construct: expressed in transfected cells
Kind of data set: Recovery of intracellular pH (pHi) after acidification, BCECF fluorescence, NHE inhibition. Conditions: pH recovery recorded 3 minutes for NHE3; bicarbonate-free conditions. The data set is classed as cell-based. As for the experimental part:
In this test, the recovery of the intracellular pH (pHi) which commences with functional NHE after acidification even under bicarbonate-free conditions. For this, the pHi was determined using the pH-sensitive fluorescent dye BCECF (Calbiochem, the precursor BCECF-AM is employed). The cells were first loaded with BCECF. The BCECF fluorescence was determined in a ratio fluorescence spectrometer (Photon Technology International, South Brunswick, N.J., USA) at excitation wavelengths of 505 and 440 nm and an emission wavelength of 535 nm and converted into the pHi by means of calibration curves. During BCECF loading, the cells were already incubated in NH4Cl buffer (pH 7.4) (NH4Cl buffer: 115 mM NaCl, 20 mM NH4Cl, 5 mM KCl, 1 mM CaCl2, 1 mM MgSO4, 20 mM Hepes, 5 mM glucose, 1 mg/ml of BSA; a pH of 7.4 is set using 1 M NaOH). The intracellular acidification was induced by addition of 975 μl of an NH4Cl-free buffer (see below) to 25 μl aliquots of the cells incubated in NH4Cl buffer. The subsequent rate of the pH recovery was recorded for 2 minutes in the case of NHE1, for 5 minutes in the case of NHE2 and 3 minutes in the case of NHE3. For the calculation of the inhibitory potency of the tested substances, the cells were first investigated in buffers in which a complete recovery or no pH recovery at all took place. For complete pH recovery (100%), the cells were incubated in Na^+-containing buffer (133.8 mM NaCl, 4.7 mM KCl, 1.25 mM CaCl2, 1.25 mM MgCl2, 0.97 mM Na2HPO4, 0.23 mM NaH2PO4, 5 mM Hepes, 5 mM glucose, a pH of 7.0 is set using 1 M NaOH). For the determination of the 0% value, the cells were incubated in an Na^+-free buffer (133.8 mM choline chloride, 4.7 mM KCl, 1.25 mM CaCl2, 1.25 mM MgCl2, 0.97 mM K2HPO4, 0.23 mM KH2PO4, 5 mM Hepes, 5 mM glucose, a pH of 7.0 is set using 1 M NaOH). The substances to be tested were applied in the Na^+-containing buffer. The recovery of the intracellular pH at any tested concentration of a substance was expressed as a percentage of the maximum recovery. By means of the program Sigma Plot, the IC50 value of the respective substance for the individual NHE subtypes was calculated from the percentage values of the pH recovery.

The nature of data set [1]: Solubility by UV spectroscopy in 0.9% strength NaCl solution. The data set is classed as physicochemical. Particulars: 0.9% NaCl solution, saline or isotonic. As for the experimental part: The solubilities indicated below are determined by UV spectroscopy in a 0.9% strength NaCl solution.

T1 sequence (P26433 29-831): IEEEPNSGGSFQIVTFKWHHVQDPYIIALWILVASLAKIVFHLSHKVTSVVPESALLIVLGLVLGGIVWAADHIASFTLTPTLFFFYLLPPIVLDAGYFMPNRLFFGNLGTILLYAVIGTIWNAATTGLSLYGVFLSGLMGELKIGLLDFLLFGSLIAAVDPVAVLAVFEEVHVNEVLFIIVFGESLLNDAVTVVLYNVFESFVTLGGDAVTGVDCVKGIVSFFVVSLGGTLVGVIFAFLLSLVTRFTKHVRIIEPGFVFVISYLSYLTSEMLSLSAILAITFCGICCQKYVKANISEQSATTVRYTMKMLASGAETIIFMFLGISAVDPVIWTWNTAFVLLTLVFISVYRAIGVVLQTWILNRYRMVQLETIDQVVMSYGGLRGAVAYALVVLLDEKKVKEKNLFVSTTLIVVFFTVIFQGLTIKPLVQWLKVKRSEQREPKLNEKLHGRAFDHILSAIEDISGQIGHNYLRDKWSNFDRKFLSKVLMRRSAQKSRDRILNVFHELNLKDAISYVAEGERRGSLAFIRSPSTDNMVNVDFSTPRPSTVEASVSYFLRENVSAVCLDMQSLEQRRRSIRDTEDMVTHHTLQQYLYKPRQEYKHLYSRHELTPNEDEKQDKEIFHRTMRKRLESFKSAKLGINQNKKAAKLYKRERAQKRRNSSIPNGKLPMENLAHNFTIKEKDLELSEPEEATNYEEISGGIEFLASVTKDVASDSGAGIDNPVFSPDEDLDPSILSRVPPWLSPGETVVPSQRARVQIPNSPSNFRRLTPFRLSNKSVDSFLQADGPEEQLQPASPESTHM

In the case of `C/C(=C\c1ccc(Nc2ccc(S(N)(=O)=O)cc2)cc1)C(=O)N=C(N)N` [Example 4, 4-[4-(3-Guanidino-2-methyl-3-oxopropenyl)phenylamino]benzenesulfonamide; trifluoroacetate], on rNHE3, half-maximal inhibition (IC50) was put at 620 nM.

`C/C(=C\c1cc(F)c(Oc2ccc(S(=O)(=O)NCCN(C)C)cc2)c(F)c1)C(=O)N=C(N)N.Cl.Cl` [Example 6, 4-[2 ,6-Difluoro-4-(3-guanidino-2-methyl-3-oxopropenyl)phenoxy]-N-(2-dimethylaminoethyl)benzenesulfonamide, HCl salt] had a solubility in data set [1] of 1860 µg/mL. Besides, the IC50 on rNHE3 worked out at 60 nM.

In the case of `C/C(=C\c1cc(F)c(Oc2ccc(S(N)(=O)=O)cc2)c(F)c1)C(=O)N=C(N)N` [Example 2, 4-[2,6-Difluoro-4-(3-guanidino-2-methyl-3-oxopropenyl)phenoxy]benzenesulfonamide; methanesulfonate], the IC50 at rNHE3 turned out to be 20 nM.

For the compound `CCNC(=O)NS(=O)(=O)c1ccc(Oc2c(F)cc(/C=C(\C)C(=O)N=C(N)N)cc2F)cc1` [Example 9, 4-[2,6-Difluoro-4-(3-guanidino-2-methyl-3-oxopropenyl)phenoxy]benzenesulfone N-(carboxy-N′-ethylamid)amide; HCl salt], on rNHE3, the IC50 stood at 70 nM.

`C/C(=C\c1ccc(Nc2ccc(S(=O)(=O)NCCN3CCCC3)cc2)cc1)C(=O)N=C(N)N.Cl.Cl` [Example 11, 4-[4-(3-Guanidino-2-methyl-3-oxopropenyl)phenylamino]-N-(2-pyrrolidin-1-ylethyl)-benzenesulfonamide; HCl salt]: in data set [1], the solubility was determined as 1520 µg/mL. This compound also displayed an IC50 on rNHE3 of 850 nM.

For the compound `C/C(=C\c1ccc(Nc2cccc(S(N)(=O)=O)c2)cc1)C(=O)N=C(N)N` [Example 5, 3-[4-(3-Guanidino-2-methyl-3-oxopropenyl)phenylamino]benzenesulfonamide, trifluoroacetate], on rNHE3, half-maximal inhibition (IC50) was put at 1200 nM.

`CNC(=O)NS(=O)(=O)c1ccc(Oc2c(F)cc(/C=C(\C)C(=O)N=C(N)N)cc2F)cc1` [Example 8, 4-[2 ,6-Difluoro-4-(3-guanidino-2-methyl-3-oxopropenyl)phenoxy]benzenesulfone N-(carboxy-N′-methylamid)amide; HCl salt]: the IC50 against rNHE3 is 90 nM.

The compound `C/C(=C\c1ccc(Nc2ccc(S(=O)(=O)N(C)C3CCN(C)C3)cc2)cc1)C(=O)N=C(N)N.Cl.Cl` (centres unmarked) [Example 13, 4-[4-(3-Guanidino-2-methyl-3-oxopropenyl)phenylamino]-N-methyl-N-(1-methyl-pyrrolidin-3-yl)benzenesulfonamide, HCl salt] showed a solubility in data set [1] of 3080 µg/mL. This compound also yielded an IC50 against rNHE3 of 590 nM.

In the case of `C/C(=C\c1ccc(Oc2ccc(S(N)(=O)=O)cc2)cc1)C(=O)N=C(N)N` [Example 3, 4-[4-(3-Guanidino-2-methyl-3-oxopropenyl)phenoxy]benzenesulfonamide; HCl salt], half-maximal inhibition against rNHE3 (IC50) required 130 nM.

In data set [1], `C/C(=C\c1ccc(Nc2ccc(S(=O)(=O)N3CCN(C)CC3)cc2)cc1)C(=O)N=C(N)N.Cl.Cl` [Example 12, N-(2-Methyl-3-{4-[4-(4-methylpiperazine-1-sulfonyl)phenylamino]phenyl}acryloyl)-guanidine; HCl salt] yielded a solubility of 1760 µg/mL. For the same compound, the IC50 at rNHE3 came to 2600 nM.

On to `C/C(=C\c1ccc(Nc2ccc(S(=O)(=O)NCCN(C)C)cc2)cc1)C(=O)N=C(N)N.Cl.Cl` [Example 10, N-(2-Dimethylaminoethyl)-4-[4-(3-guanidino-2-methyl-3-oxopropenyl)phenylamino]-benzenesulfonamide; HCl salt], for which the solubility in data set [1] is 1280 µg/mL. Also, the IC50 at rNHE3 came out at 1100 nM.

Take `C/C(=C\c1cc(F)c(Oc2ccc(S(=O)(=O)N3CCN(C)CC3)cc2)c(F)c1)C(=O)N=C(N)N` [Example 7, N-(3-{3,5-Difluoro-4-[4-(4-methylpiperazin-1-sulfonyl)phenoxy]phenyl}-2-methyl-acryloyl)guanidine; trifluoroacetate]: in data set [1], the solubility was over 2190 µg/mL. This compound also showed an IC50 at rNHE3 of 2600 nM.

With `C/C(=C\c1cc(F)c(Oc2ccc(S(N)(=O)=O)cc2)c(F)c1)C(=O)N=C(N)N` [Example 1, 4-[2,6-Difluoro-4-(3-guanidino-2-methyl-3-oxopropenyl)phenoxy]benzenesulfonamide; HCl salt], the concentration for half-maximal inhibition (IC50) on rNHE3 amounted to 70 nM. That is a double-digit nanomolar value.

Consider `CNS(=O)(=O)c1ccc(Nc2ccc(/C=C(\C)C(=O)N=C(N)N)cc2)cc1` [Example 14, 4-[4-(3-Guanidino-2-methyl-3-oxopropenyl)phenylamino]-N-methylbenzenesulfonamide; HCl salt], for which half-maximal inhibition on rNHE3 (IC50) was put at 850 nM.
